From US20250163056A1, “NONMUSCLE MYOSIN II INHIBITORS” (The University of Florida Research Foundation, Inc., priority 2018, published 2025) come the findings set out here.

Some results are limits rather than exact numbers.

The Ki is the equilibrium dissociation constant of an inhibitor or competing ligand from its target.

One data set deals with Bovine cardiac myosin (Bos taurus (Bovine), UniProt Q9BE39). The experiment in a line: Cardiac muscle myosin II actin-activated ATPase assay (NADH-coupled). The arrangement: key to Ratio CMMII:NMII Ki/EC50: NMII-sel: no Ki value for cardiac myosin II could be determined; the compounds had no detectable inhibitory properties versus the cardiac myosin II. It counts as biochemical. The following applies: for Ki: 300 nM cardiac myosin, 10 μM actin, 25° C., read-out: CMMII KI; for Ratio CMMII:NMII Ki/EC50: cardiac myosin II Ki over nonmuscle myosin II EC50. The text has this:
(§1) The cardiac muscle myosin II actin-activated ATPase assay is a biochemical assay. Specifically, it is an NADH (nicotinamide adenine dinucleotide)-coupled ATPase assay that relies on NADH fluorescence as a readout. Cardiac myosin is a mechanochemical energy transducer that hydrolyzes ATP to generate force in the presence of its activator, F-actin. The resulting ADP is regenerated to ATP by pyruvate kinase (PK) that transforms one molecule of phosphoenolpyruvate (PEP) to pyruvate in parallel. Subsequently, pyruvate is reduced to lactate by lactate dehydrogenase (LDH) that, in turn, oxidizes one molecule of NADH to NAD. Therefore, the decrease in NADH concentration as a function of time equals the ATP hydrolysis rate. Bovine cardiac myosin is obtained from a commercial source, Cytoskeleton. PK, LDH, ATP, PEP, and NADH are obtained from Sigma. F-actin is prepared in house from Rabbit Muscle Acetone Powder. The assay is run at 25° C. in 384 well black-wall polystyrene microplates with a total volume of 20 μl per well. NADH fluorescence is monitored for 30 minutes with an EnVision Multimode Plate Reader. The slope of the fluorescence response, which is proportional to the reaction rate, is determined by simple linear regression. Final assay conditions are 300 nM cardiac myosin, 10 μM actin, 40 U/ml LDH, 200 U/ml PK, 220 μM NADH, 1 mM PEP, 1 mM ATP in a buffer containing 10 mM 3-(N-morpholino)propanesulfonic acid (pH=7.0), 2 mM MgCl2, 0.15 mM ethylene glycol-bis(p-aminoethyl ether)-N,N,N′,N′-tetraacetic acid, 0.1 mg/mL bovine serum albumin, 0.5% (V/V) dimethyl sulfoxide (DMSO) and 1 mM dithiothreitol. Prior to testing the inhibitory activity of the compounds, a two-fold dilution series starting at 10 mM compound concentration is prepared in DMSO. Subsequently, 100 nl is transferred to each well of the measuring plate containing a mixture of myosin, LDH and PK. The enzymatic reaction is started with the addition of a mixture containing ATP, PEP, NADH and actin. The highest final compound concentration is 50 uM. 20 μM para-aminoblebbistatin in 0.5% DMSO serves as the positive control and 0.5% DMSO alone is the negative control. Reaction rates are determined by using the fluorescence responses of a dilution series of NADH included in all plates and plotted as a function of inhibitor concentration. All measurements are carried out in triplicate. Inhibitory constants are determined by fitting the 16 point dose-response data to a quadratic equation corresponding to a simple one-to-one binding model.

The target in a further data set is Rabbit skeletal myosin. The experiment in a line: Skeletal muscle myosin II actin-activated ATPase assay. The following applies: 20 nM skeletal muscle myosin II; read-out: SKMMII KI. It counts as biochemical.
From the text: as §1
The skeletal muscle myosin II actin-activated ATPase assay is performed the same as for cardiac muscle myosin II with the following exceptions: Rabbit skeletal myosin is obtained from Cytoskeleton and the final assay conditions contain 20 nM skeletal muscle myosin II.

Data set [1] in a line: Photostability, percentage remaining undegraded under illumination or in the dark. The following applies: for Photostability 4 hours: percentage remaining undegraded after 4 hours illumination; for Photostability 24 hours: percentage remaining undegraded after 24 hours illumination; for Photostability Dark (24 h): percentage remaining undegraded in the dark.

Sequence of Bovine cardiac myosin (Q9BE39 whole entry): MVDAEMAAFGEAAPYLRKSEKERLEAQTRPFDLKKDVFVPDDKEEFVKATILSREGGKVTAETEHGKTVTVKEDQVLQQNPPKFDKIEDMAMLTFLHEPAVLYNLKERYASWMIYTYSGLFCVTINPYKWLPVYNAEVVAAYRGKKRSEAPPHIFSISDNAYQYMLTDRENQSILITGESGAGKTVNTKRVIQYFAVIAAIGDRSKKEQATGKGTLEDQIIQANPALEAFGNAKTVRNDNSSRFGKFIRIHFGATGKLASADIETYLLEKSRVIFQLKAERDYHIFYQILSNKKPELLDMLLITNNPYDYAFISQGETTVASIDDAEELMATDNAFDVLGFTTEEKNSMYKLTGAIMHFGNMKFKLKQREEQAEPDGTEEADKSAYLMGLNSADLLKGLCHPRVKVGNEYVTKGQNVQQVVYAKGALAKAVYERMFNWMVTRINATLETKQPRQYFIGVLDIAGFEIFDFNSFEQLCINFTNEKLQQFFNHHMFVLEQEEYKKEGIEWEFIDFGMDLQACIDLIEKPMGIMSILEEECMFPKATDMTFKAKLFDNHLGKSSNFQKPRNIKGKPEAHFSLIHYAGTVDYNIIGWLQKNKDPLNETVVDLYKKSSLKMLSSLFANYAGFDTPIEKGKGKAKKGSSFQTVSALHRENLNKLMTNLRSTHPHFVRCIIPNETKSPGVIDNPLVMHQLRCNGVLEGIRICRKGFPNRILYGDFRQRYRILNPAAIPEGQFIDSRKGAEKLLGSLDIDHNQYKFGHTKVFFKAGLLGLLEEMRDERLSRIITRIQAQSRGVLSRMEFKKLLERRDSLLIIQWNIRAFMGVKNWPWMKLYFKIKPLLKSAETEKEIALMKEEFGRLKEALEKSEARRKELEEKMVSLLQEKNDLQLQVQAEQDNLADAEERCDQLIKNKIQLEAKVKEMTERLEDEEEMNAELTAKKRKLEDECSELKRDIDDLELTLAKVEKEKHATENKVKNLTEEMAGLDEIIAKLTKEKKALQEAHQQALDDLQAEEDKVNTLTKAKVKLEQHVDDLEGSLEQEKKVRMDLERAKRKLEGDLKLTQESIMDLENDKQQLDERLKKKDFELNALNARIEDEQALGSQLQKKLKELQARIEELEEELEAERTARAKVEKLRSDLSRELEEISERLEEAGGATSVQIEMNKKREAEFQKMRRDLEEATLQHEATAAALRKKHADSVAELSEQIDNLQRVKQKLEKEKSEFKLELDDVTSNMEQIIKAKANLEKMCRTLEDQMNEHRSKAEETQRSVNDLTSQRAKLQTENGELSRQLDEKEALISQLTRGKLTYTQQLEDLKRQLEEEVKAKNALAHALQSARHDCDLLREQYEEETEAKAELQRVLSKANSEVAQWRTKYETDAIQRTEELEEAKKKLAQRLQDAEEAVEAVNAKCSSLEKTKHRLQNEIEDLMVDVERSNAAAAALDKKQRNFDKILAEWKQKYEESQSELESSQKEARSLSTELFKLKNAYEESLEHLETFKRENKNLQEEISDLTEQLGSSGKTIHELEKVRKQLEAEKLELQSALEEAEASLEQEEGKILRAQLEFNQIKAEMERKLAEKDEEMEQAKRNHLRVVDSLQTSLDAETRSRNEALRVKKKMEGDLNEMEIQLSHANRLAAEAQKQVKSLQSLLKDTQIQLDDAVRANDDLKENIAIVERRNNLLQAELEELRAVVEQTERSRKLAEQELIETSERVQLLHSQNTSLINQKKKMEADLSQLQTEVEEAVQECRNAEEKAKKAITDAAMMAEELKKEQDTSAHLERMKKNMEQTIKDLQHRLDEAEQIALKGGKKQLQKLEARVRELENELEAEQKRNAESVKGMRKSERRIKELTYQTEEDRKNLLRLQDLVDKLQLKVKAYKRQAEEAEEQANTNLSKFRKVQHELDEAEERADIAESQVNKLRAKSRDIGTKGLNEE
Sequence of Bovine cardiac myosin (P85100 whole entry partner): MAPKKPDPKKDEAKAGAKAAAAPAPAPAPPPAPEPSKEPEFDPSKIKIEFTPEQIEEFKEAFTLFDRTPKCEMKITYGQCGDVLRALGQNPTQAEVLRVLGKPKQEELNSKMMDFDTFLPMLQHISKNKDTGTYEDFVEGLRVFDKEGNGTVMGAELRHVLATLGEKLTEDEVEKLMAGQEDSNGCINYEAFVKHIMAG
Sequence of Bovine cardiac myosin (Q3SZE5 whole entry partner): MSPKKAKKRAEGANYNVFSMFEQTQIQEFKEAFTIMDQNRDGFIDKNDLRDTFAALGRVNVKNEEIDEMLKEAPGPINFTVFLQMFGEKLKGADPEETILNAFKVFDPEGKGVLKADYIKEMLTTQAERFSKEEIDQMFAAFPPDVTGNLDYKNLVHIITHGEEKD

Regarding `COc1cccc(N2CC[C@@]3(O)C(=O)c4cc(C)ccc4N=C23)c1` [BPN-0025044], on Bovine cardiac myosin, the Ki stood at 28 µM and the “Ratio CMMII:NMII Ki/EC50” value stood at 5.4. Moreover, the Ki on Rabbit skeletal myosin came out at 7 µM. Moreover, in data set [1], the “Photostability 4 hours” value is on record as 90.3%, the “Photostability 24 hours” value turned out to be 12.1% and the “Photostability Dark (24 h)” value was >99%.
For `O=C1c2cc(C(F)(F)F)ccc2N=C2N(c3ccccc3)CC[C@@]12O` [BPN-0025110], on Bovine cardiac myosin, the Ki was found to be 22 µM and the “Ratio CMMII:NMII Ki/EC50” value turned out to be 6.9. In addition, the Ki at Rabbit skeletal myosin turned out to be 8 µM. For the same molecule, in data set [1], the “Photostability 4 hours” value is on record as 6.6%, the “Photostability 24 hours” value was 2.6% and the “Photostability Dark (24 h)” value is given as >99%.
Regarding `Cc1ccc2c(c1)C(=O)[C@]1(O)CCN(c3cccc(Br)c3)C1=N2` [BPN-0025240], at Bovine cardiac myosin, the Ki was 400 µM and the “Ratio CMMII:NMII Ki/EC50” value was 39.2. The Ki on Rabbit skeletal myosin was determined as 35 µM. In data set [1], the “Photostability 4 hours” value turned out to be 93.0%, the “Photostability 24 hours” value stood at 28.6% and the “Photostability Dark (24 h)” value stood at 94.7%.
For the molecule `Cc1ccc2c(c1)C(=O)[C@]1(O)CCN(c3ccc(C)c(Cl)c3)C1=N2` [BPN-0025254], the “Ratio CMMII:NMII Ki/EC50” value on Bovine cardiac myosin is “NMII-sel”. Also, on Rabbit skeletal myosin, the Ki turned out to be 7.7 µM. Also, in data set [1], the “Photostability 4 hours” value was determined as 92.5%, the “Photostability 24 hours” value is listed as 39.4% and the “Photostability Dark (24 h)” value is >99%.
For `Cc1ccc2c(c1)C(=O)[C@]1(O)CCN(c3ccc(C)c(C)c3)C1=N2` [BPN-0025903] the same measures were “NMII-sel”, 11 µM, 39.8%, 7.5% and 98.3%.
Take `COc1cc(N2CC[C@@]3(O)C(=O)c4cc(C)ccc4N=C23)ccn1` [BPN-0025919]: at Bovine cardiac myosin, the Ki came to 18 µM and the “Ratio CMMII:NMII Ki/EC50” value stood at 4.6. In addition, the Ki at Rabbit skeletal myosin was 1.8 µM.
In the case of `Cc1ccc2c(c1)C(=O)[C@@]1(O)C(=N2)N(c2ccccc2)CC1(C)C` [BPN-0026282], the “Ratio CMMII:NMII Ki/EC50” value at Bovine cardiac myosin is on record as “NMII-sel”. Further, in data set [1], the “Photostability 4 hours” value is on record as 64.0%, the “Photostability 24 hours” value came out at 7.0% and the “Photostability Dark (24 h)” value is >99%.
Take `Cc1ccc2c(c1)C(=O)[C@]1(O)CCN(c3ccc4occc4c3)C1=N2` [BPN-0026283]: at Bovine cardiac myosin, the “Ratio CMMII:NMII Ki/EC50” value is listed as “NMII-sel”. In addition, at Rabbit skeletal myosin, the Ki was determined as 5 µM. In data set [1], the “Photostability 4 hours” value turned out to be 39.4%, the “Photostability 24 hours” value was determined as 10.8% and the “Photostability Dark (24 h)” value came to 92.0%.
On to `Cc1ccc2c(c1)C(=O)[C@]1(O)CCN(c3ccc4ccoc4c3)C1=N2` [BPN-0026285], for which, on Bovine cardiac myosin, the inhibition constant Ki came out at 9.1 µM and the “Ratio CMMII:NMII Ki/EC50” value came out at 5.7. Also, the inhibition constant (Ki) on Rabbit skeletal myosin was determined as 0.9 µM. For the same molecule, in data set [1], the “Photostability 4 hours” value is 51.9%, the “Photostability 24 hours” value stood at 8.2% and the “Photostability Dark (24 h)” value is listed as 94.7%.
Regarding `Cc1ccc2c(c1)C(=O)[C@]1(O)CCN(c3ccc(C#N)c(C)c3)C1=N2` [BPN-0026324], on Bovine cardiac myosin, the Ki stood at 30 µM and the “Ratio CMMII:NMII Ki/EC50” value is 13.6. Further, at Rabbit skeletal myosin, the Ki was 3.5 µM. Moreover, in data set [1], the “Photostability 4 hours” value stood at 98.5%, the “Photostability 24 hours” value is given as 90.4% and the “Photostability Dark (24 h)” value is on record as >99%.
For the molecule `Cc1ccc2c(c1)C(=O)[C@]1(O)CCN(c3ccc(Cl)c(C)c3)C1=N2` [BPN-0026325], the “Ratio CMMII:NMII Ki/EC50” value on Bovine cardiac myosin is listed as “NMII-sel”. Further, the inhibition constant Ki at Rabbit skeletal myosin came to 13 µM. In addition, in data set [1], the “Photostability 4 hours” value worked out at 89.0%, the “Photostability 24 hours” value came to 14.0% and the “Photostability Dark (24 h)” value is listed as 97.8%.
As for `Cc1cc2c(cc1F)C(=O)[C@]1(O)CCN(c3ccccc3)C1=N2` [BPN-0026387], at Bovine cardiac myosin, the inhibitory constant (Ki) was found to be 13 µM and the “Ratio CMMII:NMII Ki/EC50” value is 5.2. In addition, the Ki at Rabbit skeletal myosin came to 1.2 µM. In data set [1], the “Photostability 4 hours” value is 85.2%, the “Photostability 24 hours” value is 18.0% and the “Photostability Dark (24 h)” value was determined as 93.5%.
Take `COc1ccc(N2CC[C@@]3(O)C(=O)c4cc(C(F)(F)F)ccc4N=C23)cc1` [BPN-0026393]: on Bovine cardiac myosin, the Ki was 11 µM and the “Ratio CMMII:NMII Ki/EC50” value was found to be 3.2. Further, the Ki on Rabbit skeletal myosin stood at 1.7 µM. In data set [1], the “Photostability 4 hours” value stood at 97.9%, the “Photostability 24 hours” value amounted to 75.0% and the “Photostability Dark (24 h)” value is listed as >99%.
As to `Cc1ccc2c(c1)C(=O)[C@]1(O)CCN(c3ccc(C#N)c(Cl)c3)C1=N2` [BPN-0026394], the “Ratio CMMII:NMII Ki/EC50” value on Bovine cardiac myosin is recorded as “NMII-sel”. Further, on Rabbit skeletal myosin, the Ki stood at 4.8 µM. In data set [1], the “Photostability 4 hours” value is reported as >99%, the “Photostability 24 hours” value was determined as 98.7% and the “Photostability Dark (24 h)” value is given as >99%.
For the molecule `O=C1c2cc(Cl)ccc2NC2N(c3ccc4ccoc4c3)CC[C@@]12O` (some centres unmarked) [BPN-0026401], at Bovine cardiac myosin, the Ki worked out at 50 µM and the “Ratio CMMII:NMII Ki/EC50” value is reported as 16.7. Also, the Ki on Rabbit skeletal myosin is 3.3 µM. Also, in data set [1], the “Photostability 4 hours” value came to 81.2%, the “Photostability 24 hours” value worked out at 9.6% and the “Photostability Dark (24 h)” value is reported as 97.7%.
For the molecule `Cc1ncc(N2CC[C@@]3(O)C(=O)c4cc(C(F)(F)F)ccc4N=C23)s1` [BPN-0026404], on Bovine cardiac myosin, the Ki is 23 µM and the “Ratio CMMII:NMII Ki/EC50” value stood at 7.0. Besides, the Ki on Rabbit skeletal myosin stood at 3.6 µM.
With `Cn1cc(N2CC[C@@]3(O)C(=O)c4cc(C(F)(F)F)ccc4N=C23)cn1` [BPN-0026413], at Bovine cardiac myosin, the inhibitory constant (Ki) was found to be 110 µM and the “Ratio CMMII:NMII Ki/EC50” value turned out to be 3.1. Also, the inhibition constant (Ki) on Rabbit skeletal myosin is 33 µM. In data set [1], the “Photostability 4 hours” value is reported as 94.3%, the “Photostability 24 hours” value is reported as 82.2% and the “Photostability Dark (24 h)” value is 97.3%.
As to `Cc1cc2c(cc1F)C(=O)[C@]1(O)CCN(c3ccc(C)c(Cl)c3)C1=N2` [BPN-0026606], at Bovine cardiac myosin, the “Ratio CMMII:NMII Ki/EC50” value was “NMII-sel”. Further, in data set [1], the “Photostability 4 hours” value was 85.9%, the “Photostability 24 hours” value is on record as 4.1% and the “Photostability Dark (24 h)” value is given as 95.5%.
With `Cc1ccc(N2CC[C@@]3(O)C(=O)c4cc(Cl)ccc4N=C23)cc1` [BPN-0026609], on Bovine cardiac myosin, the Ki came out at 5.5 µM and the “Ratio CMMII:NMII Ki/EC50” value was found to be 3.7. The inhibitory constant (Ki) at Rabbit skeletal myosin came out at 0.43 µM.
Take `Cc1ccc(N2CC[C@@]3(O)C(=O)c4cc(C)c(C(F)(F)F)cc4N=C23)cc1Cl` [BPN-0026786]: the “Ratio CMMII:NMII Ki/EC50” value on Bovine cardiac myosin is “NMII-sel”. For the same molecule, in data set [1], the “Photostability 4 hours” value is recorded as 87.8%, the “Photostability 24 hours” value came to 66.6% and the “Photostability Dark (24 h)” value is on record as 96.0%.
The like results for `Cc1cccc(N2CC[C@@]3(O)C(=O)c4cc(C)c(C(F)(F)F)cc4N=C23)c1` [BPN-0026847] were, in that order, “NMII-sel”, 99.0%, 91.8% and >99%.
For `Cc1sc2c(c1C)C(=O)[C@]1(O)CCN(c3cccc(Br)c3)C1=N2` [BPN-0026853] the same measures were “NMII-sel”, 91.2%, 88.2% and 90.2%.
The like results for `O=C1c2cc(C(F)(F)F)ccc2N=C2N(c3ccc4ncsc4c3)CC[C@@]12O` [BPN-0027219] were, in that order, “NMII-sel”, 46.2%, 3.8% and 98.3%.
Turning to `O=C1c2c(sc3c2CCCC3)N=C2N(c3ccc4ncccc4c3)CC[C@@]12O` [BPN-0027240], on Bovine cardiac myosin, the “Ratio CMMII:NMII Ki/EC50” value was “NMII-sel”. Also, in data set [1], the “Photostability 4 hours” value is on record as 94.1%, the “Photostability 24 hours” value turned out to be 74.6% and the “Photostability Dark (24 h)” value was 98.0%.
